# Data taken from the OligoGym collection.
# Several values for one entry are separate records, joined by “and”; a condition that tells them apart may be missing. Identical values can stand only once. After the bases stand the sugars from the 5' end (letter, count) and the backbone: PS all phosphorothioate, else s phosphorothioate and o phosphodiester by linkage. Methylation of C is not given here. e = 2'-O-(2-methoxyethyl) (MOE); k = constrained ethyl (cEt); d = 2'-deoxy (DNA)
# Biological target: IRF4
# Settings: ASO
sequence,measurement,setting,value
"CTTGATAAAGGCTGAA (sugars k3 d9 k3 e1, PS)",target mRNA inhibition,"MM.1R, 1 µM",36%
"TGGTACGGGATTTCCG (sugars k3 d10 k3, PS)",target mRNA inhibition,"SK-MEL-28, 4 µM",37%
"AGCCCAAAGTTACATC (sugars k3 d10 k3, PS)",target mRNA inhibition,"SK-MEL-28, 4 µM",42%
"TCCTCAACCGCTGAAC (sugars k3 d10 k3, PS)",target mRNA inhibition,"SK-MEL-28, 4 µM",37%
"TTCTTATGCATGTTCC (sugars k3 d10 k3, PS)",target mRNA inhibition,"SK-MEL-28, 4 µM",65% and 80%
"CAGTGACTTGCATCCA (sugars kkdddddddddkekek, PS)",target mRNA inhibition,"MM.1R, 1 µM",26%
"AATATAACGGTGTTTC (sugars k3 d10 k3, PS)",target mRNA inhibition,"MM.1R, 1 µM",8%
"TCTATAGTGTTCCAGG (sugars kkdddddddddkdkdk, PS)",target mRNA inhibition,"MM.1R, 0.074 µM",22%
same,target mRNA inhibition,"MM.1R, 0.222 µM",28%
same,target mRNA inhibition,"MM.1R, 0.666 µM",45%
same,target mRNA inhibition,"MM.1R, 1 µM",50%
same,target mRNA inhibition,"MM.1R, 2 µM",72%
"GGCTAATGAAATGTCA (sugars k3 d10 k3, PS)",target mRNA inhibition,"SK-MEL-28, 4 µM",64%
"TTTATGTTAGCCAATT (sugars k2 d9 e3 k2, PS)",target mRNA inhibition,"MM.1R, 1 µM",3% and 21%
"TTTCAAATCGACTGCC (sugars k3 d10 k3, PS)",target mRNA inhibition,"SK-MEL-28, 4 µM",31%
"GCAGTGATGTCAGGTT (sugars kkdddddddddekeke, PS)",target mRNA inhibition,"MM.1R, 0.074 µM",22%
same,target mRNA inhibition,"MM.1R, 0.222 µM",49%
same,target mRNA inhibition,"MM.1R, 0.666 µM",73%
same,target mRNA inhibition,"MM.1R, 1 µM",80%
same,target mRNA inhibition,"MM.1R, 2 µM",92%
"TACACCTCTTCACTAC (sugars k3 d10 k3, PS)",target mRNA inhibition,"MM.1R, 1 µM",-18%
"TGCGGAGGTTCCTTGA (sugars k3 d10 k3, PS)",target mRNA inhibition,"MM.1R, 1 µM",12%
"GCTGAGAGTTCAGGTC (sugars k3 d10 k3, PS)",target mRNA inhibition,"MM.1R, 1 µM",7%
"GAACAGGAAGCCACTA (sugars k3 d10 k3, PS)",target mRNA inhibition,"SK-MEL-28, 4 µM",23%
"TGCCAGTGGTGGCCGC (sugars k3 d10 k3, PS)",target mRNA inhibition,"SK-MEL-28, 4 µM",30%
"GATCATCAACTTCTTT (sugars k3 d10 k3, PS)",target mRNA inhibition,"SK-MEL-28, 4 µM",43%
"AGTTCATGTAAAGTCT (sugars kkddddddddddkeke, PS)",target mRNA inhibition,"MM.1R, 1 µM",45% and 49%
"GTCTACTGCTGTACTT (sugars k3 d10 k3, PS)",target mRNA inhibition,"SK-MEL-28, 4 µM",52%
"TGTATCATGCATACCA (sugars k3 d10 k3, PS)",target mRNA inhibition,"MM.1R, 1 µM",3%
"TCCACTGTTAAAGCAG (sugars k3 d10 k3, PS)",target mRNA inhibition,"SK-MEL-28, 4 µM",55%
"GCCCAAAGGCTCCCGA (sugars k3 d10 k3, PS)",target mRNA inhibition,"SK-MEL-28, 4 µM",11%
"TTCATAGCTAGTTCAT (sugars k3 d10 k3, PS)",target mRNA inhibition,"SK-MEL-28, 4 µM",44%
"TGCAAGATGACTCCAT (sugars k3 d10 k3, PS)",target mRNA inhibition,"SK-MEL-28, 4 µM",57%
"GTGTGCTTGCCAAGCC (sugars kkdddddddddkdkdk, PS)",target mRNA inhibition,"MM.1R, 1 µM",59%
"AGTCAGACAGTGCGCC (sugars k3 d10 k3, PS)",target mRNA inhibition,"SK-MEL-28, 4 µM",10%
"GACACTTTTAGAGAGG (sugars kkkddddddddkekek, PS)",target mRNA inhibition,"MM.1R, 1 µM",-8%
"CTGCATCAAATCAAGT (sugars k3 d10 k3, PS)",target mRNA inhibition,"SK-MEL-28, 4 µM",47%
"GACAATGGAGATACTT (sugars k3 d10 k3, PS)",target mRNA inhibition,"MM.1R, 1 µM",33% and 37%
"GTGTTTGCCATGGTAT (sugars k3 d10 k3, PS)",target mRNA inhibition,"MM.1R, 0.0625 µM",-1%
same,target mRNA inhibition,"MM.1R, 0.25 µM",13%
same,target mRNA inhibition,"MM.1R, 1 µM",57% and 40%
same,target mRNA inhibition,"MM.1R, 4 µM",70%
"AGCTTGATAAAGGCTG (sugars k3 d10 k3, PS)",target mRNA inhibition,"SK-MEL-28, 4 µM",36%
"GCTGAATGCTCTCCAT (sugars k3 d10 k3, PS)",target mRNA inhibition,"SK-MEL-28, 4 µM",52%
"TGCTGCAAATCCCTCT (sugars k3 d10 k3, PS)",target mRNA inhibition,"MM.1R, 1 µM",21%
"CCGGAGACCTTGAAGA (sugars k3 d10 k3, PS)",target mRNA inhibition,"SK-MEL-28, 4 µM",9%
"AGCTATGCTCTAGGAA (sugars k3 d10 k3, PS)",target mRNA inhibition,"MM.1R, 1 µM",11%
"TATCATGCATACCAAA (sugars k3 d10 k3, PS)",target mRNA inhibition,"MM.1R, 0.074 µM",-4%
same,target mRNA inhibition,"MM.1R, 0.222 µM",-7%
same,target mRNA inhibition,"MM.1R, 0.666 µM",3%
same,target mRNA inhibition,"MM.1R, 2 µM",14%
same,target mRNA inhibition,"SK-MEL-28, 4 µM",58%
"CCGGGTGTGGCTGATC (sugars k3 d10 k3, PS)",target mRNA inhibition,"SK-MEL-28, 4 µM",16%
"AACAGATAGTTAAGTA (sugars k3 d10 k3, PS)",target mRNA inhibition,"SK-MEL-28, 4 µM",19%
"AGAACGAGGTAAATCT (sugars k3 d10 k3, PS)",target mRNA inhibition,"SK-MEL-28, 4 µM",40%
"AGAAAGAGCTGGTAGG (sugars k3 d10 k3, PS)",target mRNA inhibition,"SK-MEL-28, 4 µM",36%
"GAGAAACGGCCTGGAG (sugars k3 d10 k3, PS)",target mRNA inhibition,"SK-MEL-28, 4 µM",44%
"AAGCACTGGCATTGAG (sugars k3 d10 k3, PS)",target mRNA inhibition,"SK-MEL-28, 4 µM",42%
"CACCAGGTTAAACAGG (sugars k3 d10 k3, PS)",target mRNA inhibition,"SK-MEL-28, 4 µM",-8%
"TGAGATAGGAAGCACT (sugars k3 d10 k3, PS)",target mRNA inhibition,"SK-MEL-28, 4 µM",38%
"AGCCGAGGCCTCCTTT (sugars k3 d10 k3, PS)",target mRNA inhibition,"MM.1R, 1 µM",-28%
"ACGCTTGCAGCTCTGA (sugars k3 d10 k3, PS)",target mRNA inhibition,"SK-MEL-28, 4 µM",48%
"GCCCAGCAAGAGGCAC (sugars k3 d10 k3, PS)",target mRNA inhibition,"SK-MEL-28, 4 µM",7%
